{
  "source": "patent US10098906B2",
  "about": "“Modulation of the physical interaction between platelets and the cell surface effecting cell proliferation” (Cell Receptor GmbH, priority 2013, dated 2018)",
  "key": {"[1]": {"tested_on": "HeLa cells, clone S3", "experiment": "Adhesion experiment (platelet binding to cell surface), microscopic quantification", "assay_type": "cell-based, human", "settings": "for Inhibition of platelet binding to growing cells (in words): concentration not stated; for Reduction of platelet binding to the cells: 0.01 U/mL; for Inhibition of the binding of platelets to the HeLa cells: 0.1 U/mL, FIGS. 5 to 9; for Inhibition of platelet binding to growing cells: 0.1 ppm, FIG. 11, triplicate", "experimental": "The process for evaluating the platelet binding of growing cells involves the isolation of platelets from peripheral blood with two subsequent washes and cell sedimentation. These washes include a partial activation of the platelets, which is relevant for their interaction with Heparin. The incubation with the cells under investigation takes place under conditions in which full activation of platelets is approached, which would lead to lumps forming in the platelets. This would hinder analysis. Therefore, a low concentration of EDTA is added to the assay. The quantification of platelets and the calculation of the surface portions of cells and background is carried out using appropriate software, namely by macros in the open source program ImageJ.\nVirus and mycoplasma free HeLa cells, clone S3, and human skin fibroblasts (NHDF) were purchased from Promo Cell, Heidelberg. Their human origin was confirmed by STR-Analysis. HeLa cells were maintained in Eagles MEM with 10% fetal calf serum. The NHDF were also maintained with 10% fetal calf serum in RPMI 1640. The passaging was performed by trypsin-EDTA treatment. The cell lines were maintained in either 25 ml bottles or in 3 cm plates.\nThe cells used for the experiment are cultured for 2 or 3 days in standard plates. At the start of the experiment about ⅓ of the plate surface should be covered with cells. The culture plates are subsequently washed with the buffer mixture described above and filled with further buffer mixture. For example, 30 mm culture dishes are filled with 2 ml 37° C. pre-warmed buffer mixture and 3×10^7 platelets obtained from the above-mentioned suspension.\nThe platelet-treated plates are incubated at 37° C. for 60 minutes. In this incubation, the pretreated platelets adhere to proliferating cells. However, cells of G0-phase bind little or none of the pre-treated platelets. This stage of incubation is when the substance to be tested is added to the cell culture buffer, in order to detect whether an effect on platelet binding is observed.\nAfter the one hour incubation, the plates are washed at room temperature with the above mentioned buffer mixture until no free water floating platelets (generally 2 to 4 washes) are present and immediately fixed with glutaraldehyde (1% v/v in H2O).\nThe evaluation is carried out photographically. For this purpose, the image analysis program ImageJ is applied. The number of cell-bound platelets in relation to the recorded cell number of cells is determined. Additionally, the number of cell-bound platelets in relation to the cell-covered area may be determined.\nImages are produced after the fixation in triplicate per plate. Phase contrast or brightfield 25×, 16× or 10× objectives are used. Image analysis is carried out according to SOP IJ. The open source program ImageJ may be used to for differential image subtraction and mask optimization. Subsequently, platelet number, cell number and proportional cell surface are determined by other IJ components."}, "[2]": {"experiment": "Anticoagulant activity compared with heparin", "settings": "in vitro studies"}, "[3]": {"tested_on": "platelets", "experiment": "In vitro platelet aggregation compared with UFH", "assay_type": "cell-based", "settings": "in vitro studies"}, "[4]": {"tested_on": "HeLa cells", "experiment": "Cell culture experiment for testing inhibition of cell proliferation (daily co-incubation with platelets, serum-free)", "assay_type": "cell-based, human", "settings": "inhibitor 1.0 or 0.1 μg/mL co-incubated with platelets 30 minutes daily, serum-free Eagle's MEM", "experimental": "In order to interrogate the effectiveness of PPS and DXS with respect to the inhibition of cell growth, the following experiment may be carried out.\nExperiment duration: 5 days; Culture medium: Eagle's MEM without serum addition.\nTest approach: PPS or DXS in 1.0, 0.1 μg/mL, and control (0 μg/mL final concentration).\nHeLa cells are cultured from stocks: 10^4 cells/25 cm^2 flask, cell numbers are counted in a Fuchs-Rosenthal chamber. Platelets are prepared as described above.\nPlatelets and HeLa cells, or other tumor cell lines, either with or without inhibitor, are co-incubated for 30 minutes once every day, for 1 to 4 days. After co-incubation the cells are washed as described above and then allowed to rest under standard culture conditions. Typically 90×10^6 platelets are incubated per well per day.\nOn day 5, cells are washed with HBSS, photographed, trypsinized and the cell number counted as described above."}, "[5]": {"settings": "fraction of heparin activity; cited from earlier work"}},
  "note": "“And” between values parts separate entries of the source, which are not always exact repeats. Identical values can stand only once.",
  "data": [
    {"substance": "danaparoid", "values": [
      {"measurement": "Difference in platelet binding between control and treatment", "setting": "[1]; 1.25 U/mL, about 5 times the upper limit of the therapeutic range", "result": "no significant difference"},
      {"measurement": "Cell-bound platelets per cell", "setting": "[1]; 1.25 U/mL, control 15.9+/-7.7 platelets/cell", "result": 13.2, "unit": "platelets/cell"},
      {"measurement": "Inhibition of platelet binding to growing cells (in words)", "setting": "[1]", "result": "significantly lower effect"},
      {"measurement": "Inhibition of platelet binding to growing cells (in words)", "setting": "[1]; listed as Danaparoid", "result": "to a lower extent"}
    ]},
    {"substance": "dermatan sulfate", "values": [
      {"measurement": "Inhibition of platelet binding to growing cells (in words)", "setting": "[1]", "result": "significantly less effective"}
    ]},
    {"substance": "dalteparin", "values": [
      {"measurement": "Reduction of platelet binding to the cells", "setting": "[1]", "result": "significant reduction"},
      {"measurement": "Inhibition of the binding of platelets to the HeLa cells", "setting": "[1]", "result": "almost completely inhibited"}
    ]},
    {"substance": "pentosan polysulfate [PPS]", "values": [
      {"measurement": "Inhibition of platelet binding to growing cells", "setting": "[1]", "result": "roughly 75%"},
      {"measurement": "Inhibition of platelet binding to growing cells (in words)", "setting": "[1]", "result": "reproducible inhibition"},
      {"measurement": "Anticoagulation in comparison to UFH", "setting": "[2]", "result": "reduced anticoagulation"},
      {"measurement": "Platelet aggregation in comparison to UFH", "setting": "[3]", "result": "reduced platelet aggregation"},
      {"measurement": "Increase of cell number (proliferation) on day 5", "setting": "[4]", "result": "increases to a reduced extent"},
      {"measurement": "Anticoagulant activity relative to heparin", "setting": "[5]", "result": "less than 1/10 and much weaker and 1/15"}
    ]},
    {"substance": "enoxaparin", "values": [
      {"measurement": "Reduction of platelet binding to the cells", "setting": "[1]", "result": "significant reduction"},
      {"measurement": "Inhibition of the binding of platelets to the HeLa cells", "setting": "[1]", "result": "almost completely inhibited"}
    ]},
    {"substance": "heparan sulfate", "values": [
      {"measurement": "Inhibition of platelet binding to growing cells (in words)", "setting": "[1]", "result": "significantly less effective"}
    ]},
    {"substance": "Dextran sulfate sodium salt from Leuconostoc spec [DXS]", "values": [
      {"measurement": "Inhibition of platelet binding to growing cells", "setting": "[1]", "result": "roughly 75%"},
      {"measurement": "Inhibition of platelet binding to growing cells (in words)", "setting": "[1]", "result": "reproducible inhibition"},
      {"measurement": "Anticoagulation in comparison to UFH", "setting": "[2]", "result": "reduced anticoagulation"},
      {"measurement": "Platelet aggregation in comparison to UFH", "setting": "[3]", "result": "reduced platelet aggregation"},
      {"measurement": "Increase of cell number (proliferation) on day 5", "setting": "[4]", "result": "increases to a reduced extent"},
      {"measurement": "Anticoagulant activity relative to heparin", "setting": "[5]", "result": "much weaker"}
    ]},
    {"substance": "tinzaparin", "values": [
      {"measurement": "Reduction of platelet binding to the cells", "setting": "[1]", "result": "significant reduction"},
      {"measurement": "Inhibition of the binding of platelets to the HeLa cells", "setting": "[1]", "result": "almost completely inhibited"}
    ]}
  ]
}
